From patent publication US8143279B2, “Benzimidazole-carboxamide compounds as 5-HT4 receptor agonists” (Theravance, Inc., priority 2005, dated 2012)

Assays:
[1] = Solid state stability assessment; format: physicochemical; conditions: three months at 40° C. and 75% RH, open glass vials
Protocol: Solid State Stability Assessment
Samples of the crystalline compound of Form I, prepared according to the process of Example 216, were stored in multiple open glass vials at 40° C. and 75% RH. At specific intervals, the contents of a representative vial was removed and analyzed by DSC, TGA, PXRD, and by HPLC for chemical purity.

[2] = Protocol: Thermogravimetric analysis (TGA) was performed using a TA Instruments Model Q-500 module. Data were collected and analyzed using TA Instruments Thermal Advantage for Q Series™ software. A sample weighing about 2 mg was placed in an aluminum pan on a platinum cradle and scanned from ambient temperature to about 300° C. with a linear heating rate of 10° C./min. The balance and furnace chambers were purged with nitrogen during use.
[3] = Dynamic moisture sorption assessment; format: physicochemical; conditions: 25° C.
Protocol: Dynamic Moisture Sorption Assessment
Dynamic moisture sorption (DMS) assessment was performed at 25° C. using a VTI atmospheric microbalance, SGA-100 system (VTI Corp., Hialeah, Fla. 33016). A sample size of approximately 5-10 mg was used and the humidity was set at the ambient value at the start of the analysis. A typical DMS analysis consisted of three scans: ambient to 2% relative humidity (RH), 2% RH to 90% RH, 90% RH to 5% RH at a scan rate of 5% RH/step. The mass was measured every two minutes and the RH was changed to the next value (±5% RH) when the mass of the sample was stable to within 0.02% for 5 consecutive points.

[4] = Pharmacokinetic study in the rat; format: in vivo
Protocol: Assay 6: Pharmacokinetic Study in the Rat
Aqueous solution formulations of test compounds were prepared in 0.1% lactic acid at a pH of between about 5 and about 6. Male Sprague-Dawley rats (CD strain, Charles River Laboratories, Wilmington, Mass.) were dosed with test compounds via intravenous administration (IV) at a dose of 2.5 mg/kg or by oral gavage (PO) at a dose of 5 mg/kg. The dosing volume was 1 mL/kg for IV and 2 mL/kg for PO administration. Serial blood samples were collected from animals pre-dose, and at 2 (IV only), 5, 15, and 30 min, and at 1, 2, 4, 8, and 24 hours post-dose.
Standard pharmacokinetic parameters were assessed by non-compartmental analysis (Model 201 for IV and Model 200 for PO) using WinNonlin (Version 4.0.1, Pharsight, Mountain View, Calif.). The maximum in the curve of test compound concentration in blood plasma vs. time is denoted Cmax. The area under the concentration vs. time curve from the time of dosing to the last measurable concentration (AUC(0-t)) was calculated by the linear trapezoidal rule.

[5] = male Sprague-Dawley rats, PO 5 mg/kg, blood plasma

Row | SMILES | change in the DSC or TGA thermograms and PXRD pattern after storage [1] | chemical purity of the stored sample (HPLC) [1] [%] | onset of degradation (TGA) [2] | weight change (moisture sorption) ([3]; 2% to 90% RH) | weight change (moisture sorption) ([3]; critical humidity range of 40% to 75% RH) | AUC(0-t) [4, 5] [ng·h/mL] | Cmax [4, 5] [ng/mL] | bioavailability ([4]; male, Sprague-Dawley, plasma, PO 5 mg/kg vs IV 2.5 mg/kg, read-out: oral bioavailability (F(%))) [%]
1 | COC(=O)N1CCC(CN2CCC(CNC(=O)c3cccc4[nH]c(C(C)C)nc34)CC2)CC1 [Form I, 4-(4-{[(2-isopropyl-1H-benzoimidazole-4-carbonyl)-amino]methyl}piperidin-1-ylmethyl)piperidine-1-carboxylic acid methyl ester] | no detectable change | 99.5 | above 240 °C | less than 0.25% | less than 0.1% | – | – | –
2 | COC(=O)N1CCC(CN2CCC(CNC(=O)c3cccc4[nH]c(C(C)C)nc34)CC2)CC1 [Example 1, 4-(4-{[(2-isopropyl-1H-benzoimidazole-4-carbonyl)-amino]methyl}piperidin-1-ylmethyl)piperidine-1-carboxylic acid methyl ester] | – | – | – | – | – | 1200 | 800 | ~75
